The text on data set [1]: Methylene blue (MB) is a heterocyclic aromatic chemical compound with molecular formula: C16H18N3SCl (SigmaAldrich, Oslo, Norway). It has many uses in a range of different fields, such as biology and chemistry. […] A degradation of MB therefore can be used as a model for the in vivo degradation of organic material, such as bacteria, or dead, damaged, and/or infected tissue. At room temperature, it appears as a solid, odourless, dark green powder, that yields a blue solution when dissolved in water. When degraded in solution, methylene blue becomes colourless.
When methylene blue is analysed by UV-vis spectrophotometry (Lambda 25, Perkin Elmer, USA), it absorbs light at […]. This machine was used to quantify the degradation of MB.
The aim was to measure if methylene blue could be degraded by H2O2(PERDROGEN® 30% H2O2 (v/v), Sigma Aldrich AS, Oslo, Norway) at 5% only, without ACP in a composite hydrogel formulation comprising poloxamers (Sigma Aldrich AS, Oslo, Norway) at a concentration of 5% w/v. Then, an increasing concentration of amorphous calcium phosphates ACP (by mixing two precursor components. Component A contained MB in a mixture of mono- and dibasic ammonium phosphate at pH 5.5.) was added to the solution until a maximum concentration of 8 g/L.
The measurements were taken every 3 minutes for one hour. The pH of the suspension containing MB was also registered. […]

Data set [2] can be described thus: pH of the suspension containing MB. It counts as physicochemical.
The test system of data set [3] is Staphylococcus epidermidis biofilm. As to the kind of experiment: Removal of biofilm from titanium disks, safranin staining. It counts as cell-based. The note with it: two minutes exposure. An excerpt: Chemically pure (cp) titanium disks with a diameter of 6.2 mm and a height of 2 mm were used. […] After production, the disks were washed with NaOH at 40% v/v and HNO3 at 50% v/vin an ultrasonic bath to remove contaminants, then were washed with deionised water to reach a neutral pH and stored at room temperature in 70% v/v ethanol. Thereafter, the coins were placed in Eppendorf tube and steam autoclaved for sterilization.
Four chemical decontamination agents were selected for the in vitro testing: sterile saline H2O (VWR, Oslo, Norway), Chlorhexidine, 3% v/v H2O2(VWR, Oslo, Norway), a mixture of 3% v/v H2O2 and 2 g/L TiO2 (2 g nano-particles: P25 Aeroxide, Degussa Evonik, Evonik Industries AG, Essen, Germany).
15 sterile titanium disks per groups were inoculated. […] The amount of biofilm present on the surface of the titanium samples was assessed by using the safranin staining method: 10 min exposure to a 0.1% solution of safranin, then rinsed with distilled water, air dried, and exposed to a solution of 30% acetic acid to release the colored biomass from the titanium surfaces. The intensity of the staining was analyzed using a Synergy HT Multi-Detection Microplate Reader (Biotek, VT, USA) with a wavelength of 530 nm.

For data set [4] the following is noted: cited from earlier work.

Like-named read-outs stand apart in the source and are kept apart here.

Turning to `OO` [H2O2, Hydrogen peroxide], the MB degradation entry in data set [1] (adding 5% v/v H2O2 to the ACP suspension) is “increased the MB degradation”; in data set [1] (increasing concentration of H2O2 in the ACP suspension), “increased the MB degradation in a linear way”. Besides, the “pH of the suspension” value was 3.3 in data set [2] (ACP suspension with MB, with H2O2 at 15% v/v) and 3.7 in data set [2] (H2O2 suspension with MB, without ACP). Besides, the “biofilm removal with higher concentration” value in data set [3] is recorded as “increased the biofilm removal”. Moreover, the “effect on wound healing” value in data set [4] (0.03% v/v solution, only if not applied repeatedly) was “may induce healing”; in data set [4] (0.5% v/v solution) it was “impede healing”.

(Values after US12685749B2, “Multi-functional cleaning and/or debridement composition” (CORTICALIS AS, priority 2021, dated 2026).)
